# Measured values published in ChEMBL document CHEMBL1150897, “Antioxidant flavonoid glycosides from Daphniphyllum calycinum” (J Nat Prod, 1998).
# System: Radical scavenging activity
# Assay: Antioxidant activity assessed as DPPH free radical scavenging activity
# Assay type: functional
row,Compound,IC50 [µg/mL]
1,COc1ccc(O)c(C(C)(C)C)c1.COc1ccc(O)cc1C(C)(C)C [BUTYLATED HYDROXYANISOLE],21
2,O=C(O)c1cc(O)c(O)c(O)c1 [GALLIC ACID],5
3,C[C@@H]1O[C@@H](OC[C@H]2O[C@@H](Oc3c(-c4ccc(O)cc4)oc4cc(O)c(O)c(O)c4c3=O)[C@H](O)[C@@H](O)[C@@H]2O)[C@H](O)[C@H](O)[C@H]1O,43.2

# The next lines start with the values.
row,IC50 [µg/mL],Compound
1,22,O=C1O[C@H]([C@@H](O)CO)C(O)=C1O [ASCORBIC ACID]
2,12,CC(Cc1ccc(O)c(O)c1)C(C)Cc1ccc(O)c(O)c1 (configuration not stated) [NORDIHYDROGUAIARETIC ACID]
3,12,O=C(O)/C=C/c1ccc(O)c(O)c1 [CAFFEIC ACID]
4,79.6,C[C@H]1O[C@H](O[C@H]2[C@H](Oc3c(-c4ccc(O)cc4)oc4cc(O)cc(O)c4c3=O)O[C@H](CO)[C@@H](O)[C@@H]2O)[C@@H](O)[C@@H](O)[C@@H]1O
